Measurements: patent publication US5880146A, “Inhibition of IL-12-induced IFN-γ synthesis by specific bis-phenol compounds as a method of immune modulation” (Fuji ImmunoPharmaceuticals Corporation, priority 1995, dated 1999)

Legend:
[1] = system: T cell response of human PBMC to allogenic stimulation by Namalwa cells; experiment: Mixed Lymphocyte Reaction (proliferation and IFN-γ secretion); format: cell-based; details: 6 days; FIGS. 1-3
Procedure: This reaction measures the T cell response to allogenic stimulation by a mismatch of class II histocompatability antigens. This is triggered through the T cell receptor and activates the T cell to secrete and proliferate in response to endogenous IL-2. IFN-γ is also made in response to this stimulation and accumulates in the culture medium. Compounds are tested for their ability to block the proliferation and response to antigenic stimulation as well as their ability to produce IFN-γ as follows. A human B cell ine expressing class II antigen, Namalwa (American Type Culture Collection), is incubated for 2 hr at 37° C. in RPMI-10 containing mitomycin C (50 μg/ml). These cells are washed four times by centrifugation and resuspension (10^6 cells/ml) in SF-RPMI medium and are added to the wells of 96-well plate (50 μl/well) as stimulators. Mitomycin treatment prevents these cells from proliferating in the assay. Fresh PBMC are prepared as described above in example 1, but are not activated with PHA. Instead they are resuspended at 10^6 cells/ml and 100 μl is added per well. Dilutions of test compounds are added (50 μl/well) to give a final volume of 200 μl and the plates are incubated for 6 days at 37° C. During the last 18 hr, ^3 H-thymidine (DuPont-NEN- 1 μCi/well) is added as a measure of cell proliferation, cultures are collected using a cell harvester (Packard), and scintillation fluid is added prior to counting in a Packard Top Count scintillation counter. A sample of medium is also collected for measurement of IFN-γ production prior to the addition of ^3 H-thymidine for use as a negative control.

[2] = Cell viability (MTS) after treatment with bis-compound; format: cell-based; details: human, pha-activated pbmc, 5 μg/ml
Procedure: Human peripheral blood monocytes (PBMC) were obtained from commercial sources as a leukophoresis from a healthy volunteer and were purified by centrifugation on a Ficoll-Hypaque (Pharmacia) gradient (1700 rpm for 20 min). The "buffy" coat containing the PBMC was diluted with serum-free culture medium (SF-RPMI) to a volume of 50 ml and collected by centrifugation at 1500 rpm for 5 min. Cells were resuspended in cell culture medium containing 10% fetal bovine serum (RPMI-10) and phytohemaglutinin (PHA - 10 μg/ml) at a density of 5×10^6 cells/ml and were cultured for 3 days at 37° C. in a humidified CO2 incubator. The PHA-activated cells were collected by centrifugation, washed three times with an equal volume of SF-RPMI and resuspended in fresh RPMI-10 (1×10^6 cells /ml). Aliquots (100 μl) were dispensed into the wells of multiple 96-well plates to give a final cell number of 10^5 per well. Test compounds, dissolved in dimethyl sulfoxide (DMSO) at 1 mg/ml, were first diluted in culture medium to an intermediate concentration of 20 μg/ml and then were added (50 μwell) to a specific well of the plate for each compound. Stimulation medium (50 μl/well) containing 10% serum, IL-2 and IL-12 was added to final concentrations of 25 U/ml and 0.5 ng/ml, respectively. Control wells receive no IL-2 or IL-12 (negative control) or received both interleukins but no test compound (positive control). The plates were incubated for 48 hr at 37° C. in a CO2 incubator at which time aliquots (20 μl) were removed for analysis of IFN-γ concentration by ELISA. A quantitative ELISA was developed by coating 96-well plates with an mouse monoclonal antibody against human IFN-γ, 1 μg/ml in phosphate buffered saline (PBS) (Pestka Biological Laboratories), overnight at 4° C. Unbound antibody was washed off by washing three times with PBS. Non-specific antibody binding was blocked with a solution of 1% bovine serum albumin (BSA) and 1% goat serum in PBS (150 μl/well) which was incubated for 2 hr at 37° C. After washing the blocked plates four times with PBS, test samples and dilutions of the IFN-γ standard are added in a final volume of 100 μl/well. Following an overnight incubation at 4° C., the plates are washed four times with PBS, and a polyclonal rabbit antiserum against human IFN-γ (1/10000 dilution--Petska Biological Laboratories) is added. After an additional incubation for 1 hr at 37° C. and four washes with PBS, a polyclonal donkey anti-rabbit detecting antibody, conjugated to horseradish peroxidase (1/700 dilution--Petska Biological Laboratories) is added for 1 hr at 37° C. The plates are then washed four times with PBS and 100 μl of K-blue substrate E(ILISA Technologies, Neogen Corp.) is added until the color in the wells containing the standard curve is sufficiently developed, at which time 100 μl of "Red-stop" solution (ELISA Technologies) is added. The absorbance of the solution within each well of the plate is then read at 650 nm using an ELISA plate reader (Dynatech MR7000). The amount of IFN-γ is calculated by comparing the optical density of the test sample with a standard curve derived from the dilutions of the control IFN-y. […] MTS is a chemical chromophore that is metabolized in the mitochondria of viable cells to produce a color which increases in intensity in proportion to the numbers of viable cells. The absorbance of the cell culture can be compared to control cultures in order to determine the percent viability.

[3] = Toxicity of bis-compounds after single systemic dose; format: in vivo; details: mouse, in vivo, 16% cremaphor, conc. sol. 10 mg/ml, single dose
[4] = system: mice; experiment: as above; format: in vivo; details: 16% cremaphor, 10 mg/ml
[5] = system: IL-12 induction of IFN-γ in PHA-activated human PBMC; experiment: Screening assay for compounds which inhibit IL-12 induction of IFN-γ (ELISA); format: cell-based; details: 5 μg/ml, IL-2 25 U/ml + IL-12 0.5 ng/ml, 48 hr, single test, read-out: % INH of IFNγ
Procedure: Human peripheral blood monocytes (PBMC) were obtained from commercial sources as a leukophoresis from a healthy volunteer and were purified by centrifugation on a Ficoll-Hypaque (Pharmacia) gradient (1700 rpm for 20 min). The "buffy" coat containing the PBMC was diluted with serum-free culture medium (SF-RPMI) to a volume of 50 ml and collected by centrifugation at 1500 rpm for 5 min. Cells were resuspended in cell culture medium containing 10% fetal bovine serum (RPMI-10) and phytohemaglutinin (PHA - 10 μg/ml) at a density of 5×10^6 cells/ml and were cultured for 3 days at 37° C. in a humidified CO2 incubator. The PHA-activated cells were collected by centrifugation, washed three times with an equal volume of SF-RPMI and resuspended in fresh RPMI-10 (1×10^6 cells /ml). Aliquots (100 μl) were dispensed into the wells of multiple 96-well plates to give a final cell number of 10^5 per well. Test compounds, dissolved in dimethyl sulfoxide (DMSO) at 1 mg/ml, were first diluted in culture medium to an intermediate concentration of 20 μg/ml and then were added (50 μwell) to a specific well of the plate for each compound. Stimulation medium (50 μl/well) containing 10% serum, IL-2 and IL-12 was added to final concentrations of 25 U/ml and 0.5 ng/ml, respectively. Control wells receive no IL-2 or IL-12 (negative control) or received both interleukins but no test compound (positive control). The plates were incubated for 48 hr at 37° C. in a CO2 incubator at which time aliquots (20 μl) were removed for analysis of IFN-γ concentration by ELISA. A quantitative ELISA was developed by coating 96-well plates with an mouse monoclonal antibody against human IFN-γ, 1 μg/ml in phosphate buffered saline (PBS) (Pestka Biological Laboratories), overnight at 4° C. Unbound antibody was washed off by washing three times with PBS. Non-specific antibody binding was blocked with a solution of 1% bovine serum albumin (BSA) and 1% goat serum in PBS (150 μl/well) which was incubated for 2 hr at 37° C. After washing the blocked plates four times with PBS, test samples and dilutions of the IFN-γ standard are added in a final volume of 100 μl/well. Following an overnight incubation at 4° C., the plates are washed four times with PBS, and a polyclonal rabbit antiserum against human IFN-γ (1/10000 dilution--Petska Biological Laboratories) is added. After an additional incubation for 1 hr at 37° C. and four washes with PBS, a polyclonal donkey anti-rabbit detecting antibody, conjugated to horseradish peroxidase (1/700 dilution--Petska Biological Laboratories) is added for 1 hr at 37° C. The plates are then washed four times with PBS and 100 μl of K-blue substrate E(ILISA Technologies, Neogen Corp.) is added until the color in the wells containing the standard curve is sufficiently developed, at which time 100 μl of "Red-stop" solution (ELISA Technologies) is added. The absorbance of the solution within each well of the plate is then read at 650 nm using an ELISA plate reader (Dynatech MR7000). The amount of IFN-γ is calculated by comparing the optical density of the test sample with a standard curve derived from the dilutions of the control IFN-y. The amount of IFN-γ that is induced in the presence of both IL-2 and IL-12 generally ranges from 1200-2000 pg/ml while the amount produced in the absence of IL-12 is generally less than 50 pg/ml. Experimental data are shown in Table 2 which discloses a) the percent inhibition of IFNγ production, relative to a […], when the cells have been treated with a bis-compound at a final concentration of 5 μg/ml of the listed bis-compound (%INH or IFNγ) and b) the percent of cells which are viable after the treatment with 5 μg/ml of the various bis-compounds, determined by adding MTS to the media (% Viability). MTS is a chemical chromophore that is metabolized in the mitochondria of viable cells to produce a color which increases in intensity in proportion to the numbers of viable cells. […]

| Compound | inhibition of IFN-γ secretion versus cell proliferation (in words) [1] | viability [2] [%] | LD50 ([3]; IV, 20% DMSO) [mg/kg] | Results (Dead/Alive) ([4]; 80 mg/kg IV, 20% DMSO) | inhibition at 5 µg/mL [5] [%] | LD50 ([3]; iv, 20% DMSO) [mg/kg] | Results (Dead/Alive) ([4]; 100 mg/kg IV, 20% DMSO) | Results (Dead/Alive) ([4]; 150 mg/kg IV, 20% DMSO) | LD50 ([3]; IV, 20% EGME) [mg/kg] | Results (Dead/Alive) ([4]; 100 mg/kg IV, 20% EGME) | Results (Dead/Alive) ([4]; 150 mg/kg IV, 20% EGME) | LD50 ([3]; iv, 20% EGME) [mg/kg] |
| --- | --- | --- | --- | --- | --- | --- | --- | --- | --- | --- | --- | --- |
| Nc1nc2nn[nH]c2c(=O)[nH]1 [Compound 8-azaguanine, 8-azaguanine, reference compound] | general immunosuppressant | – | – | – | – | – | – | – | – | – | – | – |
| CCCCC(C)(c1cc(C)c(O)c(C)c1)c1cc(C)c(O)c(C)c1 [Compound 52782] | – | 116 | < 80 | Dead | 102 | – | – | – | – | – | – | – |
| CCC(C)(c1ccc(O)c(C)c1)c1ccc(O)c(C)c1 [Compound 54003] | – | 85 | – | – | 101 | 100 to 150 | Alive | Dead | – | – | – | – |
| CCCCCCC(c1cc(C)cc(C)c1O)c1cc(C)cc(C)c1O [Compound 54015] | – | 34 | – | Alive | 96 | > 80 | – | – | – | – | – | – |
| Cc1cc(C(CCc2ccccc2)c2cc(C)cc(C(C)(C)C)c2O)c(O)c(C(C)(C)C)c1 [Compound 54016] | – | 98 | – | – | 26 | > 150 | Alive | Alive | – | – | – | – |
| CCCCCC(c1cc(C)cc(C(C)(C)C)c1O)c1cc(C)cc(C(C)(C)C)c1O [Compound 54018] | – | 92 | – | – | 55 | – | – | – | < 100 | Dead | Dead | – |
| CCCCCC(c1cc(C)cc(C)c1O)c1cc(C)cc(C)c1O [Compound 54019] | – | 101 | – | – | 77 | 100 to 150 | Alive | Dead | – | – | – | – |
| CCCCC(c1cc(C)cc(C(C)(C)C)c1O)c1cc(C)cc(C(C)(C)C)c1O [Compound 54020] | – | 95 | – | – | 69 | – | – | – | – | Alive | Dead | 100 to 150 |
| CCCC(c1cc(C)c(O)c(C)c1)c1cc(C)c(O)c(C)c1 [Compound 54044] | – | 92 | – | – | 98 | > 150 | Alive | Alive | – | – | – | – |
| CCCC(C)(c1cc(C)c(O)c(C)c1)c1cc(C)c(O)c(C)c1 [Compound 54064] | – | 112 | – | – | 79 | 100 to 150 | Alive | Dead | – | – | – | – |
